In patent US10722437B2, “Cosmetic agents with “improved protection against body odor”” (Henkel AG & Co. KGaA, priority 2016, dated 2020) one finds deodorizing effect data, which are given here for three compounds.

SMILES strings stand for the structures.

The test system of this experiment is body odor. As to the kind of experiment: Neutralization of body odor: specimen on left armpit vs anti-transpirant base suspension on right armpit, worn T-shirt rated by trained persons. It is filed as in vivo, human. The following applies: statement in words on the body odor test; 0.3 wt. % in anti-transpirant base suspension. Here is the method: The following anti-transpirant base suspension was used to determine the synergistic effect with respect to the neutralization of body odor (values in wt. %):
Each of the following cyclical alcohols of the Formula (I) and/or menthyl compounds of the Formula (II) were added to said composition, wherein the total concentration of alcohol and/or menthyl compound in the suspension is 0.3 wt. % (all values in wt. %, relative to the used anti-transpirant suspension):
Said suspensions, each with a weight ratio of 15:85, were then placed in aerosol cans with a propellant mixture of propane and n-butane (weight ratio 15:85). Specimens No. 1 to 11 were each applied to the left armpit, the anti-transpirant base suspension to the right armpit. 24 hours after application, the body odor on the worn T-shirt on the left armpit (treated with specimens No. 1 to 11) were compared to the body odor of the right armpit (treated with anti-transpirant base suspension) by trained persons. The following rating scale was used: 0=no difference between specimen No. 1 to 11 and anti-transpirant base suspension; +=body odor reduced compared to anti-transpirant base suspension; ++=body odor no longer discernible on the T-shirt.
Regarding `CC(CO)CCCC1CCCCC1` (stereo not drawn) [2-methyl-5-cyclohexylpentanol], the deodorizing effect result was “a deodorizing effect is achieved”. For the compound `CC(=O)O[C@@H]1C[C@H](C)CC[C@H]1C(C)C` [menthylacetate], the deodorizing effect result is “deodorizing effect”. Consider `CC(O)C1CCCCC1` (stereo not drawn) [1-cyclohexylethanol], for which the deodorizing effect entry is on record as “deodorizing effect”.
